The source of these data is patent US20240254086A1, “(HETERO)ARYLAMIDE COMPOUND AND PEST CONTROL AGENT” (Nippon Soda Co., Ltd., priority 2021, published 2024).

Common to all, as to type: in vivo
In one test the test system is Mythimna separata. The experiment in a line: Efficacy test against Mythimna separata (maize leaf dip). The settings on record: 125 ppm by mass, maize leaf pieces immersed 30 seconds, second-instar larvae, 6 days after release, 25° C. The source says: (§1) 5 parts by mass of the compound of the present invention, 93.6 parts by mass of dimethylformamide, and 1.4 parts by mass of polyoxyethylene alkylaryl ether were mixed and dissolved to prepare an emulsion (I) containing 5% of an active ingredient.
Maize leaf pieces were immersed in the diluent solution for 30 seconds. These maize leaf pieces were placed in a petri dish, and five second-instar larvae of Mythimna separata were released to prepare an emulsion-treated section.
Similarly, the solvent control solution was diluted with water at the same ratio as that of the emulsion (I), and maize leaf pieces were immersed therein for 30 seconds. These maize leaf pieces were placed in a petri dish, and five second-instar larvae of Mythimna separata were released to prepare a solvent control section.
The petri dishes were left to stand in a thermostatic chamber at a temperature of 25° C. and a humidity of 60% during the test period. Mortality was evaluated at a time of passage of 6 days from the release of the insects, and the insecticidal rate in the emulsion-treated section was calculated, based on the following expression. At the same time, the food consumptions in the emulsion-treated section and the solvent control section were measured. The test was repeated twice.
Insecticidal rate (%)=(Number of dead insects/Number of test insects)×100

The subject of the next test is Tetranychus urticae. Description: Efficacy test against Tetranychus urticae (spray on green beans). The settings on record: 240 h, 125 ppm by mass, sprayed on green beans, adult females, 10 days after spraying, 25° C., read-out: insecticical rate against Tetranychus urticae (mortality of adults). As to the method: as §1
Seedlings of green beans were grown in 3-inch pots, and 8 adult female Tetranychus urticae from Aomori Prefecture were inoculated onto the first leaves. […] The diluent solution was sprayed on the green beans. The green beans were then placed in a thermostatic chamber with a temperature of 25° C. and humidity of 65%. Mortality of the adult […] was investigated after 10 days had passed from the spraying. The test was repeated twice.

The next test has as its system Tetranychus kanzawai. Description: Efficacy test against Tetranychus kanzawai (spray on kidney bean). The settings on record: 240 h, 125 ppm by mass, sprayed on kidney bean plants, adult females, 10 days after spraying, 25° C., read-out: insecticical rate against Tetranychus kanzawai (mortality of adults).
Description: as §1
The primary leaves of Kidney bean plants were inoculated with 5 adult female Tetranychus kanzawai from Okayama Prefecture. […] This drug was sprayed on the Kidney bean plants and air-dried. The kidney bean seedlings were then placed in a thermostatic chamber with a temperature of 25° C. and humidity of 65%. Mortality of the adult […] was investigated after 10 days had passed from the spraying. The test was repeated twice.

Each structure is given as a SMILES string. Some results are limits rather than exact numbers.

Regarding `CCSCCC(C)(C)CN(C)C(=O)c1cc(C#N)c(-c2ccc(C(F)(C(F)(F)F)C(F)(F)F)cc2)nc1C` [A-105], the “Insecticidal rate against Mythimna separata” value with Mythimna separata is listed as 90%.
The mortality is the share of the test organisms that died. For the compound `CCSCCC(CC)(CC)CNC(=O)c1cc(C#N)c(-c2ccc(C(F)(F)F)cc2)nc1C` [A-78, 5-Cyano-N-[2,2-diethyl-4-(ethylthio)butyl]-2-methyl-6-[4-(trifluoromethyl)phenyl]nicoti namide], the mortality at 125 ppm in the test on Tetranychus urticae and in the test on Tetranychus kanzawai was ≥ 90% in each case.
As for `CCSCCC(CC)(CC)CNC(=O)c1cc(C#N)c(-c2ccc(C(F)(F)F)cc2)cc1C(F)(F)F` [C-7, 2-Cyano-N-[2,2-diethyl-4-(ethylthio)butyl]-4′,5-bis(trifluoromethyl)-(1,1′-biphenyl)-4-ca rboxamide], the mortality at 125 ppm in the test with Tetranychus urticae and in the test on Tetranychus kanzawai was ≥ 90% in each case.
As for `CCSCC(C)(C)CN(C)C(=O)c1cc(C#N)c(-c2ccc(C(F)(F)F)cc2)nc1C` [A-146, 5-Cyano-N-[3-(ethylthio)-2,2-dimethylpropyl]-N,2-dimethyl-6-[4-(trifluoromethyl)pheny 1]nicotinamide], the mortality at 125 ppm in the test with Tetranychus urticae and with Tetranychus kanzawai was ≥ 90% throughout.
In the case of `CCSCCC(CC)(CC)CNC(=O)c1cc(C#N)c(-c2ccc(OC(F)(F)F)cc2OC)nc1C` [A-27], the “Insecticidal rate against Mythimna separata” value in the test with Mythimna separata is reported as 90%.
Take `CCSCC(C)(C)CNC(=O)c1cc(C#N)c(-c2ccc(C(F)(F)F)cc2)nc1C` [A-147, 5-Cyano-N-[3-(ethylthio)-2,2-dimethylpropyl]-2-methyl-6-[4-(trifluoromethyl)phenyl]ni cotinamide]: the mortality at 125 ppm in the test with Tetranychus urticae and in the test on Tetranychus kanzawai was ≥ 90% in each case.
